Values quoted from earlier work in PMC4369175 (Journal of photochemistry and photobiology. B, Biology, 2015).
Read-outs that look alike come from different tables or passages of the source.

How the values were obtained:
[1] = standard value

CC/N=c1\cc2oc3cc(NCC)c(C)cc3c(-c3ccccc3C(=O)OCC)c-2cc1C [Rhodamine 6G]
Φf of fluorescence standard ([1]; in ethanol): 0.95

CN(C)c1ccc2nc3ccc(=[N+](C)C)cc-3sc2c1 [methylene blue]
ΦΔ singlet oxygen quantum yield of the reference standard: 0.52 | Φf of fluorescence standard ([1]; in methanol): 0.03
